# Measured values from BindingDB's records for doi:10.1016/j.bmcl.2010.04.069 (Boehringer Ingelheim Pharmaceuticals, 2010).
# Assay: Inhibition of CDC42
smiles,measurement,value
"O=C(Nc1cc2cc[nH]c(=O)c2cc1Cl)[C@@H]1CNC[C@H]1c1ccc(Cl)cc1 [(3S,4R)-N-(7-chloro-1-oxo-1,2-dihydroisoquinolin-6-yl)-4-(4-chlorophenyl)pyrrolidine-3-carboxamide]",IC50,0.054 µM
